Data as given in EP0265185A2, “Cephalosporins, processes for their preparation and pharmaceutical compositions containing them” (BEECHAM GROUP PLC, priority 1986, dated 1988).
In brackets after ≈: the same amount, converted by molar mass. Structures can show the parent of a compound that is named as a salt. Where two headings read alike, the source gives them in different places.

How the values were obtained:
Enterobacter cloacae P99 = assay: Minimum inhibitory concentration by serial dilution in agar; format: cell-based
Protocol: (§1) Minimum inhibitory Concentration (MIC) values of compounds of the invention against Enterobacter cloacae P99 and Pseudomonas aeruginosa 10662 were determined by serial dilution in agar. The plates were inoculated with 104 colony forming units and incubated overnight at 37°C. The MIC values recorded in Tables 1 and 2 were the lowest concentration of antibiotic to inhibit growth.

[1] = test system: Pseudomonas aeruginosa 10662; assay: as above; format: cell-based
Protocol: as §1

[2] = Pseudomonas aeruginosa 10662, serial dilution in agar, inoculated with 104 colony forming units, incubated overnight at 37°C, lowest concentration to inhibit growth, read-out: MIC

Structure (SMILES)	MIC (Enterobacter cloacae P99) [µg/mL]	MIC [1, 2] [µg/mL]	MIC ([1]; Pseudomonas aeruginosa, 10662) [µg/mL]
CO/N=C(\C(=O)N[C@@H]1C(=O)N2C(C(=O)O)=C(COC(C)=O)CS[C@H]12)c1csc(N)n1 [Compound A, cefotaxime, reference compound]	≥ 128	16 (≈ 35.1 µM)	
CCN1CCN(C(=O)N[C@@H](C(=O)N[C@]2(NC=O)C(=O)N3C(C(=O)O)=C(COC(C)=O)CS[C@@H]32)c2ccccc2)C(=O)C1=O [Compound B, 7β-[D-2-[(4-ethyl-2,3-dioxopiperazin-1-yl)carbonylamino]-2-phenylacetamido]-7α-formamidocephalosporanic acid, sodium salt, reference compound]	16	16	
CCN1CCN(C(=O)N[C@@H](C(=O)N[C@]2(NC=O)C(=O)N3C(C(=O)[O-])=C(COC(=O)c4ccc(O)c(O)c4)CS[C@@H]32)c2ccccc2)C(=O)C1=O.[Na+] [Example 1, Sodium (6R,7R)-3-(3,4-Dihydroxybenzoyloxy)methyl-7-[(R)-2-(4-ethyl-2,3-dioxopiperazin-1-yl)carbonylamino-2-phenylacetamido]-7-formamidoceph-3-em-4-carboxylate]	0.12		≤ 0.03
CCN1CCN(C(=O)N[C@@H](C(=O)N[C@]2(NC=O)C(=O)N3C(C(=O)[O-])=C(CN=[N+]=[N-])CS[C@@H]32)c2ccccc2)C(=O)C1=O.[Na+] [Example 3, Sodium (6R,7R)-3-Azidomethyl-7-[(R)-2-(4-ethyl-2,3-dioxopiperazin-1-ylcarbonylamino)-2-phenylacetamido]-7-formamidoceph-3-em-4-carboxylate]	4		4
CCN1CCN(C(=O)N[C@@H](C(=O)N[C@]2(NC=O)C(=O)N3C(C(=O)[O-])=C(CNC(=O)/C=C/c4ccc(OC(C)=O)c(OC(C)=O)c4)CS[C@@H]32)c2ccccc2)C(=O)C1=O.[Na+] [Example 6, Sodium (6R,7R)-3-[(E)-3,4-Diacetoxycinnamoyl]aminomethyl-7-[(R)-2-(4-ethyl-2,3-dioxopiperazin-1-ylcarbonylamino)-2-phenylacetamido]-7-formamido-ceph-3-em-4-carboxylate]	0.5		0.12
CCN1CCN(C(=O)N[C@@H](C(=O)N[C@]2(NC=O)C(=O)N3C(C(=O)[O-])=C(CNC(=O)c4ccc(O)c(O)c4)CS[C@@H]32)c2ccccc2)C(=O)C1=O.[Na+] [Example 7, Sodium (6R,7R)-3-(3,4-Dihydroxybenzoyl)aminomethyl7-[(R)-2-(4-ethyl-2,3-dioxopiperazin-1-ylcarbonylamino) -2-phenylacetamido]-7-formamido-ceph-3-em-4-carboxylate]	0.25		≤ 0.03
CO/N=C(\C(=O)N[C@@H]1C(=O)N2C(C(=O)[O-])=C(COC(=O)c3ccc(O)c(O)c3)CS[C@H]12)c1csc(N)n1.[Na+] [Example 10, Sodium (6R,7R)-7-[2-(2-amino-4-thiazolyl)-2-((Z)-methoxyimino)acetamido]-3-(3,4-dihydroxybenzoyloxy)methylceph-3-em-4-carboxylate]	4		0.12
